Source: patent US20120083522A1, “MODULATION OF INFLAMMATORY RESPONSES BY FACTOR XI” (Isis Pharmaceuitcals, inc., priority 2009, published 2012)
In the oligonucleotide strings, read from the 5' end, every base follows the letter of its sugar. An asterisk marks phosphorothioate; unmarked linkages are phosphodiester. Other units and linkages are bracketed, terminal groups are in braces. A string of capitals states the bases alone. e = 2'-O-(2-methoxyethyl) (MOE); [5mC] = 5-methylcytosine; d = 2'-deoxy (DNA)

Columns and labels:
Assay type in all cases: cell-based
human Factor XI mRNA [1] = test: Dose-dependent inhibition in HepG2 cells, lipofectin (Example 4); conditions: 16 hours
Protocol: (§1) Cells were plated at a density of 10,000 cells per well and transfected using lipofectin reagent with 9.375 nM, 18.75 nM, 37.5 nM and 75 nM concentrations of antisense oligonucleotide, as specified in Table 9. After a treatment period of approximately 16 hours, RNA was isolated from the cells and Factor XI mRNA levels were measured by quantitative real-time PCR. Human Factor XI primer probe set RTS 2966 was used to measure mRNA levels. Factor XI mRNA levels were adjusted according to total RNA content, as measured by RIBOGREEN®. Results are presented as percent inhibition of Factor XI, relative to untreated control cells.

human Factor XI mRNA [2] = test: Dose-dependent inhibition in HepG2 cells, electroporation (Example 4); conditions: 16 hours
Protocol: as §1, with “The gapmers were also transfected via electroporation and their dose dependent inhibition of human Factor XI mRNA was measured. Cells” for “Cells”, “20,000” for “10,000”, “via electroporation” for “using lipofectin reagent”, “0.7 μM, 2.2 μM, 6.7 μM,” for “9.375 nM, 18.75 nM, 37.5 nM”, “20 μM” for “75 nM”, “10.” for “9.”

human Factor XI mRNA [3] = test: Antisense inhibition in HepG2 cells by microwalk gapmers, 75 nM, lipofectin (Example 3); conditions: HepG2 cells, 75 nM
Outline: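 HepG2 cells (10,000 per well) were transfected with 75 nM gapmer using lipofectin and treated for about 24 h. Factor XI mRNA was quantified by real-time PCR, normalized to RiboGreen total RNA and expressed as percent inhibition versus untreated controls.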

[4] = oligonucleotides targeted to nucleobases 1018 to 1042 of SEQ ID NO: 1
[5] = oligonucleotides targeted to nucleobases 1275 to 1318 of SEQ ID NO: 1

Row | Substance | percent inhibition of Factor XI mRNA, relative to untreated control cells (human Factor XI mRNA [1]; 9.375 nM) [%] | percent inhibition of Factor XI mRNA, relative to untreated control cells (human Factor XI mRNA [1]; 18.75 nM) [%] | percent inhibition of Factor XI mRNA, relative to untreated control cells (human Factor XI mRNA [1]; 37.5 nM) [%] | percent inhibition of Factor XI mRNA, relative to untreated control cells (human Factor XI mRNA [1]; 75 nM) [%] | percent inhibition of Factor XI mRNA, relative to untreated control cells (human Factor XI mRNA [2]; 0.7 μM) [%] | percent inhibition of Factor XI mRNA, relative to untreated control cells (human Factor XI mRNA [2]; 2.2 μM) [%] | percent inhibition of Factor XI mRNA, relative to untreated control cells (human Factor XI mRNA [2]; 6.7 μM) [%] | percent inhibition of Factor XI mRNA, relative to untreated control cells (human Factor XI mRNA [2]; 20 μM) [%] | % inhibition of human Factor XI mRNA levels (human Factor XI mRNA [3]; [4]) [%] | % inhibition of human Factor XI mRNA levels (human Factor XI mRNA [3]; oligonucleotides targeted to nucleobases 1062 to 1091 of SEQ ID NO: 1) [%] | % inhibition of human Factor XI mRNA levels (human Factor XI mRNA [3]; [5]) [%]
1 | 413474 (antisense eA*eG*e[5mC]*eA*eA*d[5mC]*d[5mC]*dG*dG*dG*dA*dT*dG*dA*dT*eG*eA*eG*eT*eG) [compound 413474] | 29 | 44 | 57 | 67 | 0 | 5 | 52 | 81 | 93 | – | –
2 | 416842 (antisense eT*eG*eA*eG*eA*dT*dT*d[5mC]*dT*dT*dT*dG*dG*dG*d[5mC]*e[5mC]*eA*eT*eT*e[5mC]) [compound 416842] | 18 | 33 | 62 | 71 | 0 | 10 | 66 | 92 | – | 94 | –
3 | 416908 (antisense eG*e[5mC]*eA*dA*d[5mC]*d[5mC]*dG*dG*dG*dA*dT*dG*dA*dT*dG*dA*dG*eT*eG*e[5mC]) [compound 416908] | 36 | 57 | 67 | 76 | 7 | 58 | 74 | 89 | 98 | – | –
4 | 416922 (antisense eG*e[5mC]*eA*d[5mC]*dA*dG*dT*dT*dT*d[5mC]*dT*dG*dG*d[5mC]*dA*dG*dG*e[5mC]*e[5mC]*eT) [compound 416922] | 14 | 25 | 49 | 75 | 35 | 51 | 77 | 91 | – | – | 94
5 | 416923 (antisense eT*eG*e[5mC]*dA*d[5mC]*dA*dG*dT*dT*dT*d[5mC]*dT*dG*dG*d[5mC]*dA*dG*eG*e[5mC]*e[5mC]) [compound 416923] | 36 | 47 | 60 | 67 | 15 | 30 | 60 | 90 | – | – | 96
6 | 416924 (antisense eG*eT*eG*d[5mC]*dA*d[5mC]*dA*dG*dT*dT*dT*d[5mC]*dT*dG*dG*d[5mC]*dA*eG*eG*e[5mC]) [compound 416924] | 25 | 38 | 56 | 59 | 22 | 40 | 63 | 70 | – | – | 97
7 | 416926 (antisense eT*eG*eG*dT*dG*d[5mC]*dA*d[5mC]*dA*dG*dT*dT*dT*d[5mC]*dT*dG*dG*e[5mC]*eA*eG) [compound 416926] | 31 | 43 | 63 | 82 | 47 | 71 | 91 | 94 | – | – | 93
8 | 416931 (antisense eG*eG*e[5mC]*dA*dT*dT*dG*dG*dT*dG*d[5mC]*dA*d[5mC]*dA*dG*dT*dT*eT*e[5mC]*eT) [compound 416931] | 44 | 39 | 57 | 71 | 7 | 24 | 60 | 82 | – | – | 96
9 | 416941 (antisense eG*eG*e[5mC]*dA*dG*d[5mC]*dG*dG*dA*d[5mC]*dG*dG*d[5mC]*dA*dT*dT*dG*eG*eT*eG) [compound 416941] | 33 | 54 | 63 | 78 | 16 | 38 | 79 | 89 | – | – | 95
10 | 416984 (antisense e[5mC]*eA*dA*d[5mC]*d[5mC]*dG*dG*dG*dA*dT*dG*dA*dT*dG*dA*eG*eT*eG*e[5mC]*eA) [compound 416984] | 26 | 50 | 62 | 81 | 43 | 54 | 88 | 90 | 89 | – | –
11 | 416985 (antisense eG*e[5mC]*dA*dA*d[5mC]*d[5mC]*dG*dG*dG*dA*dT*dG*dA*dT*dG*eA*eG*eT*eG*e[5mC]) [compound 416985] | 17 | 30 | 47 | 57 | 12 | 48 | 45 | 69 | 88 | – | –
12 | 417017 (antisense eG*e[5mC]*dA*dG*d[5mC]*dG*dG*dA*d[5mC]*dG*dG*d[5mC]*dA*dT*dT*eG*eG*eT*eG*e[5mC]) [compound 417017] | – | – | – | – | – | – | – | – | – | – | 82
13 | 417018 (antisense eG*eG*d[5mC]*dA*dG*d[5mC]*dG*dG*dA*d[5mC]*dG*dG*d[5mC]*dA*dT*eT*eG*eG*eT*eG) [compound 417018] | – | – | – | – | – | – | – | – | – | – | 82
14 | 417019 (antisense eT*eG*dG*d[5mC]*dA*dG*d[5mC]*dG*dG*dA*d[5mC]*dG*dG*d[5mC]*dA*eT*eT*eG*eG*eT) [compound 417019] | – | – | – | – | – | – | – | – | – | – | 84
15 | 417020 (antisense e[5mC]*eT*dG*dG*d[5mC]*dA*dG*d[5mC]*dG*dG*dA*d[5mC]*dG*dG*d[5mC]*eA*eT*eT*eG*eG) [compound 417020] | – | – | – | – | – | – | – | – | – | – | 84
16 | 417021 (antisense eA*e[5mC]*dT*dG*dG*d[5mC]*dA*dG*d[5mC]*dG*dG*dA*d[5mC]*dG*dG*e[5mC]*eA*eT*eT*eG) [compound 417021] | – | – | – | – | – | – | – | – | – | – | 74
